Measurements from ChEMBL document CHEMBL1201862, “PubChem BioAssay data set” (2004).
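Each compound was tested at five concentrations against cells in 96-well plates for 48 hours. At the GI50, growth is halved.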 Active and inactive are the calls of the source. Rule as the data show it: active = GI50 up to about 1.1 µM and inactive = higher.

Key:
Assay in all cases: DTP human tumour cell line panel, 48 h
[1] = system: KM12
[2] = system: Malme-3M
[3] = system: ACHN
[4] = system: HCT-116
[5] = system: UACC-62
[6] = system: CAKI-1
[7] = system: RPMI-8226
[8] = system: SK-MEL-28
[9] = system: A498
[10] = system: SF-295
[11] = system: SR
[12] = system: OVCAR-4
[13] = system: LXFL 529
[14] = system: OVCAR-5
[15] = system: CCRF-CEM
[16] = system: LOX IMVI

SMILES: CCCCOC(=O)NC(=O)c1cn(CCCOC(=O)CCCCCCCCC(=O)OCCCn2cc(C(=O)NC(=O)OCCCC)c(=O)n(C)c2=O)c(=O)n(C)c1=O
- GI50 [1]: > 100 µM (inactive)
- GI50 [2]: > 100 µM (inactive)
- GI50 [3]: > 100 µM (inactive)
- GI50 [4]: > 100 µM (inactive)
- GI50 [5]: > 100 µM (inactive)
- GI50 [6]: > 100 µM (inactive)
- GI50 [7]: > 100 µM (inactive)
- GI50 [8]: > 100 µM (inactive)
- GI50 [9]: > 100 µM (inactive)
- GI50 [10]: > 100 µM (inactive)
- GI50 [11]: > 100 µM (inactive)
- GI50 [12]: > 100 µM (inactive)
- GI50 [13]: > 100 µM (inactive)
- GI50 [14]: > 100 µM (inactive)
- GI50 [15]: > 100 µM (inactive)

SMILES: N=C(N)NCCCC(NCc1c2ccccc2[n+]([O-])c2ccccc12)C(=O)O (configuration not stated)
- GI50 [1]: 50.8 µM (inactive)
- GI50 [2]: > 100 µM (inactive)
- GI50 [3]: 42.7 µM (inactive)
- GI50 [4]: 25.6 µM (inactive)
- GI50 [5]: 54.8 µM (inactive)
- GI50 [6]: 60.8 µM (inactive)
- GI50 [7]: 30.3 µM (inactive)
- GI50 [8]: 40.8 µM (inactive)
- GI50 [9]: 98.4 µM (inactive)
- GI50 [16]: 34.5 µM (inactive)
- GI50 [10]: > 100 µM (inactive)
- GI50 [12]: 31.2 µM (inactive)
- GI50 [13]: 32.7 µM (inactive)
- GI50 [14]: > 100 µM (inactive)
- GI50 [15]: 24.5 µM (inactive)

SMILES: CC(C)=CCC/C(C)=C/Cc1c(O)ccc2c1[nH]c1cc(O)c(C)cc12
- GI50 [1]: 10.6 µM (inactive)
- GI50 [2]: 13.6 µM (inactive)
- GI50 [3]: 8.85 µM (inactive)
- GI50 [4]: 13.3 µM (inactive)
- GI50 [5]: 16.9 µM (inactive)
- GI50 [7]: 17.8 µM (inactive)
- GI50 [8]: > 25 µM (inactive)
- GI50 [16]: 8.36 µM (inactive)
- GI50 [11]: 8.13 µM (inactive)
- GI50 [12]: 3.78 µM (inactive)
- GI50 [13]: 10.1 µM (inactive)
- GI50 [14]: > 25 µM (inactive)
- GI50 [15]: 7.55 µM (inactive)

SMILES: Cc1cc(NS(=O)(=O)c2ccc(NC(=O)c3cccn4c(=O)c5ccccc5nc34)cc2)no1
- GI50 [1]: > 100 µM (inactive)
- GI50 [2]: > 100 µM (inactive)
- GI50 [3]: > 100 µM (inactive)
- GI50 [4]: > 100 µM (inactive)
- GI50 [5]: > 100 µM (inactive)
- GI50 [6]: > 100 µM (inactive)
- GI50 [7]: > 100 µM (inactive)
- GI50 [8]: > 100 µM (inactive)
- GI50 [9]: > 100 µM (inactive)
- GI50 [16]: > 100 µM (inactive)
- GI50 [10]: > 100 µM (inactive)
- GI50 [11]: > 100 µM (inactive)
- GI50 [12]: > 100 µM (inactive)
- GI50 [13]: > 100 µM (inactive)
- GI50 [15]: > 100 µM (inactive)

SMILES: COc1cc(O)c(C(=O)C2Cc3ccccc32)c(OC)c1 (configuration not stated)
- GI50 [1]: 32.4 µM (inactive)
- GI50 [2]: 35.8 µM (inactive)
- GI50 [3]: 50.7 µM (inactive)
- GI50 [4]: 38.6 µM (inactive)
- GI50 [5]: 57.5 µM (inactive)
- GI50 [6]: 25.6 µM (inactive)
- GI50 [7]: 16.8 µM (inactive)
- GI50 [9]: 30 µM (inactive)
- GI50 [16]: 51.4 µM (inactive)
- GI50 [10]: 86.1 µM (inactive)
- GI50 [12]: 64.4 µM (inactive)
- GI50 [13]: 34 µM (inactive)
- GI50 [14]: 35.7 µM (inactive)
- GI50 [15]: 19.8 µM (inactive)

SMILES: Cc1nc(C(=O)O)c2ccccc2n1
- GI50 [1]: > 100 µM (inactive)
- GI50 [2]: > 100 µM (inactive)
- GI50 [3]: > 100 µM (inactive)
- GI50 [4]: > 100 µM (inactive)
- GI50 [5]: > 100 µM (inactive)
- GI50 [6]: > 100 µM (inactive)
- GI50 [7]: > 100 µM (inactive)
- GI50 [8]: > 100 µM (inactive)
- GI50 [9]: > 100 µM (inactive)
- GI50 [10]: > 100 µM (inactive)
- GI50 [11]: > 100 µM (inactive)
- GI50 [13]: > 100 µM (inactive)
- GI50 [14]: > 100 µM (inactive)
- GI50 [15]: > 100 µM (inactive)

SMILES: CCN(CC)/C(=C\Cl)Nc1ccccn1.[O-][Cl+3]([O-])([O-])O
- GI50 [1]: > 100 µM (inactive)
- GI50 [2]: > 100 µM (inactive)
- GI50 [3]: > 100 µM (inactive)
- GI50 [4]: > 100 µM (inactive)
- GI50 [5]: > 100 µM (inactive)
- GI50 [6]: > 100 µM (inactive)
- GI50 [7]: > 100 µM (inactive)
- GI50 [8]: > 100 µM (inactive)
- GI50 [9]: > 100 µM (inactive)
- GI50 [16]: > 100 µM (inactive)
- GI50 [10]: > 100 µM (inactive)
- GI50 [12]: > 100 µM (inactive)
- GI50 [13]: > 100 µM (inactive)
- GI50 [14]: > 100 µM (inactive)
- GI50 [15]: > 100 µM (inactive)

SMILES: O=C1OC(CC(=O)c2ccc(Cl)c(Cl)c2)C(Cl)=C1Cl (configuration not stated)
- GI50 [1]: > 100 µM (inactive)
- GI50 [2]: > 100 µM (inactive)
- GI50 [3]: > 100 µM (inactive)
- GI50 [5]: > 100 µM (inactive)
- GI50 [6]: > 100 µM (inactive)
- GI50 [7]: > 100 µM (inactive)
- GI50 [8]: > 100 µM (inactive)
- GI50 [9]: 31.2 µM (inactive)
- GI50 [16]: > 100 µM (inactive)
- GI50 [10]: > 100 µM (inactive)
- GI50 [12]: > 100 µM (inactive)
- GI50 [13]: 58.6 µM (inactive)
- GI50 [14]: > 100 µM (inactive)
- GI50 [15]: 20.8 µM (inactive)

SMILES: CC(=O)OCc1ncccc1C(OC(C)=O)OC(C)=O
- GI50 [1]: > 100 µM (inactive)
- GI50 [2]: > 100 µM (inactive)
- GI50 [3]: > 100 µM (inactive)
- GI50 [4]: > 100 µM (inactive)
- GI50 [5]: > 100 µM (inactive)
- GI50 [6]: > 100 µM (inactive)
- GI50 [8]: > 100 µM (inactive)
- GI50 [9]: > 100 µM (inactive)
- GI50 [16]: > 100 µM (inactive)
- GI50 [10]: > 100 µM (inactive)
- GI50 [11]: > 100 µM (inactive)
- GI50 [12]: > 100 µM (inactive)
- GI50 [13]: > 100 µM (inactive)
- GI50 [14]: > 100 µM (inactive)
- GI50 [15]: > 100 µM (inactive)

SMILES: [O-][S+](Cc1cc2c(cc1Br)OCO2)c1ccccc1 (configuration not stated)
- GI50 [1]: 17.9 µM (inactive)
- GI50 [2]: 49.1 µM (inactive)
- GI50 [3]: 64.6 µM (inactive)
- GI50 [4]: 44.9 µM (inactive)
- GI50 [5]: 33.4 µM (inactive)
- GI50 [6]: 51.5 µM (inactive)
- GI50 [7]: 24.8 µM (inactive)
- GI50 [8]: 98.2 µM (inactive)
- GI50 [9]: > 100 µM (inactive)
- GI50 [16]: 15.7 µM (inactive)
- GI50 [10]: > 100 µM (inactive)
- GI50 [12]: 67.6 µM (inactive)
- GI50 [13]: 44 µM (inactive)
- GI50 [14]: > 100 µM (inactive)
- GI50 [15]: 19.6 µM (inactive)

SMILES: CCN(CC)C1CC(O[C@H]2C[C@](O)(C(=O)CO)Cc3c(O)c4c(c(O)c32)C(=O)c2c(OC)cccc2C4=O)OC(C)C1O (some centres not stated)
- GI50 [1]: 0.0577 µM (active)
- GI50 [2]: 0.0653 µM (active)
- GI50 [3]: 0.0316 µM (active)
- GI50 [4]: 0.0214 µM (active)
- GI50 [5]: 0.0431 µM (active)
- GI50 [6]: 0.232 µM (active)
- GI50 [7]: 0.0513 µM (active)
- GI50 [8]: 0.0764 µM (active)
- GI50 [9]: 0.0236 µM (active)
- GI50 [16]: < 0.0259 µM (active)
- GI50 [10]: 0.0512 µM (active)
- GI50 [12]: 0.0546 µM (active)
- GI50 [13]: 0.0458 µM (active)
- GI50 [14]: 0.12 µM (active)
- GI50 [15]: 0.122 µM (active)

SMILES: Cc1nc(-c2ccccc2)cc2c1c(=O)oc1ccccc12
- GI50 [1]: > 100 µM (inactive)
- GI50 [2]: > 100 µM (inactive)
- GI50 [3]: > 100 µM (inactive)
- GI50 [4]: > 100 µM (inactive)
- GI50 [5]: 46.8 µM (inactive)
- GI50 [6]: > 100 µM (inactive)
- GI50 [7]: > 100 µM (inactive)
- GI50 [8]: > 100 µM (inactive)
- GI50 [10]: > 100 µM (inactive)
- GI50 [11]: > 100 µM (inactive)
- GI50 [12]: > 100 µM (inactive)
- GI50 [13]: > 100 µM (inactive)
- GI50 [14]: > 100 µM (inactive)
- GI50 [15]: > 100 µM (inactive)

SMILES: COc1ccc2cc3n(c(=O)c2c1)CCc1c-3cc(OC)c(OC)c1OC
- GI50 [2]: > 100 µM (inactive)
- GI50 [3]: > 100 µM (inactive)
- GI50 [4]: > 100 µM (inactive)
- GI50 [5]: > 100 µM (inactive)
- GI50 [6]: > 100 µM (inactive)
- GI50 [7]: > 100 µM (inactive)
- GI50 [8]: > 100 µM (inactive)
- GI50 [10]: > 100 µM (inactive)
- GI50 [11]: > 100 µM (inactive)
- GI50 [12]: > 100 µM (inactive)
- GI50 [13]: > 100 µM (inactive)
- GI50 [14]: > 100 µM (inactive)
- GI50 [15]: > 100 µM (inactive)
